Experimental data taken from ChEMBL document CHEMBL1201862, “PubChem BioAssay data set” (2004).
Several values for one entry are separate records, joined by “and”; a condition that tells them apart may be missing. Identical values can stand only once. Activity calls are given as the source filed them.

Experiments:
[1] = target: T1, Bcl-2-related protein A1 (Mus musculus, UniProt Q07440); assay: displacement of Bid BH3 peptide from Bfl-1 – biochemical, fluorescence polarization, FITC-Bid, mouse, primary screen (AID 432)
T1 sequence (Q07440 whole entry): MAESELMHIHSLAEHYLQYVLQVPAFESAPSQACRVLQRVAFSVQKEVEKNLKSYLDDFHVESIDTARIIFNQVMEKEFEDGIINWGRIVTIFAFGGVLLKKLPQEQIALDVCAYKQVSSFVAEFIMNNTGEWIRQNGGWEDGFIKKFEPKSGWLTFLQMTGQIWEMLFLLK

[2] = target: T2, Estrogen receptor beta (Homo sapiens, UniProt Q92731);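 note: recombinant ER-beta bound to coactivator SRC1 peptide in presence of estradiol agonist; inhibitors block coactivator peptide binding and lower the FRET signal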
[3] = target: T2, Estrogen receptor beta; assay: blockers of SRC-3 recruitment to ERβ – biochemical, ELISA, streptavidin-HRP readout, orthogonal assay, confirmation (AID 1060)
[4] = target: Glyceraldehyde-3-phosphate dehydrogenase (Homo sapiens, UniProt P04406)
[5] = target: T3, Estrogen receptor (Homo sapiens, UniProt P03372);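 note: potency for inhibiting coactivator peptide recruitment to the receptor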
T3 sequence (P03372 whole entry): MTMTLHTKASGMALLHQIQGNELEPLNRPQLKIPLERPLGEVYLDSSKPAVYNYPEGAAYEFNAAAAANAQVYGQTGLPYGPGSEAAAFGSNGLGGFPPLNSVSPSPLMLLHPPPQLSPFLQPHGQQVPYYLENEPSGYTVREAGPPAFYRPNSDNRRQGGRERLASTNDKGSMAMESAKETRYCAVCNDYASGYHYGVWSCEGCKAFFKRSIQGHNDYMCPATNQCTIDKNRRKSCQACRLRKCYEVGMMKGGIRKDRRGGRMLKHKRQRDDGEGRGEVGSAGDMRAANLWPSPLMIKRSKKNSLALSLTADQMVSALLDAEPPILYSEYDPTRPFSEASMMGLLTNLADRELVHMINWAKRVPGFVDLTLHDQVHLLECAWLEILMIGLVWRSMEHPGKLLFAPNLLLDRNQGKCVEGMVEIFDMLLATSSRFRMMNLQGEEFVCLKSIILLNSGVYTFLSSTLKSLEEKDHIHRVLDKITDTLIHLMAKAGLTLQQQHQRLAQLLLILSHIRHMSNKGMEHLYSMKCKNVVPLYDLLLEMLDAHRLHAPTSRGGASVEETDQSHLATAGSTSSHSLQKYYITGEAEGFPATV

[6] = target: T1, Bcl-2-related protein A1; assay: Bfl-1 binding inhibitors, SAR follow-up, biochemical, fluorescence polarization (AID 1070)
[7] = target: T1, Bcl-2-related protein A1; assay: small-molecule antagonists of Bfl-1/BH3 interaction – biochemical, TR-FRET, mouse Bfl-1, confirmation (AID 621);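 note: TR-FRET binding of GST-Bfl-1 to FITC-labelled Bid peptide via terbium antibody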
[8] = system: Vero; assay: mammalian cell viability reduction – secondary assay, cytotoxicity control for West Nile virus antiviral project, dose response (AID 1650); type: functional; conditions: Chlorocebus sabaeus
[9] = target: Heat shock protein HSP 90-alpha (Homo sapiens, UniProt P07900); assay: Luminescence-based dose response biochemical high throughput screening assay for inhibitors of the Heat Shock Protein 90 (HSP90). [Related pubchem assays: 1831 (Summary AID.), 1846 (Confirmation screen.), 1789 (Primary screen.)]
[10] = target: T4, Insulin-degrading enzyme (Homo sapiens, UniProt P14735); assay: Dose Response: Fluorescence polarization-based cell-based high throughput dose response assay for inhibitors of insulin-degrading enzyme (IDE). [Related pubchem assays: 434962 (Primary screen (IDE inhibitors in singlicate)), 449730 (Counterscreen (Cytotoxicity in triplicate)), 435028 (Confirmation (IDE inhibitors in triplicate)), 434984 (Summary …; type: functional
T4 sequence (P14735 whole entry): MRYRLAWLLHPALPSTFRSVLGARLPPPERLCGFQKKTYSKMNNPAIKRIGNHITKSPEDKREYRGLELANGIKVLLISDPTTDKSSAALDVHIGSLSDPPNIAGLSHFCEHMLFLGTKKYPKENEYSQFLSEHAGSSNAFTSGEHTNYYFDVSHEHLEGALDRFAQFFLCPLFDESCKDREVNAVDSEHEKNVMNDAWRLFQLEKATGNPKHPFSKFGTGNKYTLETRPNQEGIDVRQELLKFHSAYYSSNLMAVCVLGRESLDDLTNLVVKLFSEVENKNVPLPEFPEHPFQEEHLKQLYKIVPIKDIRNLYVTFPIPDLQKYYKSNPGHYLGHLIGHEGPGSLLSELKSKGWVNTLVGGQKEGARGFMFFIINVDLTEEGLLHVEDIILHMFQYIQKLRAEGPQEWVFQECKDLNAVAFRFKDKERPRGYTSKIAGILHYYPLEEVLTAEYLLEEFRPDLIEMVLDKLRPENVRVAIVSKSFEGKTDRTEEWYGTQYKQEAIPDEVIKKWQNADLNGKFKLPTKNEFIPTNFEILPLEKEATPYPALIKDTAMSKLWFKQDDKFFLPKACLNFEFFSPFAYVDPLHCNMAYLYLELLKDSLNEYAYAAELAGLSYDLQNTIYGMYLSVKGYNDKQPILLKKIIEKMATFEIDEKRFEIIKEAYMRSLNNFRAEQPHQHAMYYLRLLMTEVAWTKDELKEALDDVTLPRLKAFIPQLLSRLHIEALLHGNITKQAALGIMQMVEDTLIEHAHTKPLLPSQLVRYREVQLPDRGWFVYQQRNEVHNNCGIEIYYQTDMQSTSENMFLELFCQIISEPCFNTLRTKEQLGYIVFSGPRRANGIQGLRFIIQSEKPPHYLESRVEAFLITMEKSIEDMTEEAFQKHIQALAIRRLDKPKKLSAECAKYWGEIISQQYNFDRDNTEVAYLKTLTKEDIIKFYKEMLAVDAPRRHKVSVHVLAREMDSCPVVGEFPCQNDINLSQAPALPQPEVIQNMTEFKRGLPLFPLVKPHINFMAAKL

[11] = Counterscreen for IDE inhibitors: Luminescence-based cell-based high throughput dose response assay to identify compounds that are cytotoxic to HEK cells. [Related pubchem assays: 434962 (Primary screen (IDE inhibitors in singlicate)), 449730 (Counterscreen (Cytotoxicity in triplicate)), 435028 (Confirmation (IDE inhibitors in triplicate)) …; type: functional; conditions: HEK293
[12] = system: HeLa; assay: Cytotoxicity counterscreen assay for transcriptional activators of heat shock protein 70 (Hsp70). [Related pubchem assays: 1203, 1252 ]; type: functional; conditions: Homo sapiens;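 note: cells exposed to compound for 16 hours before readout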
[13] = target: Ubiquitin carboxyl-terminal hydrolase BAP1 (Homo sapiens, UniProt Q92560); assay: inhibition of BAP1 ubiquitin hydrolase activity – biochemical, dose response (AID 714); type: functional
[14] = M. tuberculosis H37Rv growth inhibitors, H37Rv strain (AID 1626); type: functional
[15] = target: T5, Mucolipin-3 (Homo sapiens, UniProt Q8TDD5); assay: Dose response cell-based high-throughput screening assay for agonists of the transient receptor potential channel ML3 (TRPML3). [Related pubchem assays: 1526, 1424, 1448 ]; type: functional
T5 sequence (Q8TDD5 whole entry): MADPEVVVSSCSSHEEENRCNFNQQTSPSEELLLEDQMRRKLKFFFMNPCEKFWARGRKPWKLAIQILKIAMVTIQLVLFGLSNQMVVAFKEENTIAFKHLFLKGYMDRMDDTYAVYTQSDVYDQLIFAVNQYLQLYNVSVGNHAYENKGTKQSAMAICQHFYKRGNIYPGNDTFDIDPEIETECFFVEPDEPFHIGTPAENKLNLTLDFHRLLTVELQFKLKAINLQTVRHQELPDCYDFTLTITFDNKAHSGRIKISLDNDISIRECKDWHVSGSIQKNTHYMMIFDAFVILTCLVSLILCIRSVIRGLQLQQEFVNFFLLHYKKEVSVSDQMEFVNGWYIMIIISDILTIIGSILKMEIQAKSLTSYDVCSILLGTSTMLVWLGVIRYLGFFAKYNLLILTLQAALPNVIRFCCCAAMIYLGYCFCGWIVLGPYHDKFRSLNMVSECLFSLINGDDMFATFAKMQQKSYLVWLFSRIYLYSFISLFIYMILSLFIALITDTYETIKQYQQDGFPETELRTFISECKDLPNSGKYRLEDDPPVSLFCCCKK

[16] = target: Ion channel NompC (Danio rerio, UniProt Q7T1G6); assay: Fluorescence counterscreen assay for TRPML3 agonists: dose response cell-based high-throughput screening assay to identify agonists of the transient receptor potential channel N1 (TRPN1). [Related pubchem assays: 1526, 1424, 1448 ]; type: functional
[17] = target: Peroxisome proliferator-activated receptor gamma/Nuclear receptor coactivator 3 (Homo sapiens, UniProt P37231); assay: TR-FRET dose response biochemical High Throughput Screening assay for agonists of the steroid receptor coactivator 3 (SRC-3) recruitment by the peroxisome proliferator-activated receptor gamma (PPAR gamma): non-selective agonists. [Related pubchem assays: 1301 (Confirmation screen.), 1048 (Primary screen.)]; type: functional
[18] = target: Peroxisome proliferator-activated receptor gamma/Nuclear receptor coactivator 2 (Homo sapiens, UniProt P37231); assay: (§1) TR-FRET dose response biochemical High Throughput Screening assay for agonists of the steroid receptor coactivator 2 (SRC-2) recruitment by the peroxisome proliferator-activated receptor gamma (PPAR gamma): non-selective agonists. [Related pubchem assays: 1297, 1032 ]; type: functional
[19] = target: Peroxisome proliferator-activated receptor gamma/Nuclear receptor coactivator 1 (Homo sapiens, UniProt P37231); assay: as §1, with “1 (SRC-1)” for “2 (SRC-2)”, “assays (depositor defined):AID1300, AID1808, AID504735, AID631]” for “assays: 1297, 1032 ]”; type: protein assay
[20] = target: Mitogen-activated protein kinase 10 (Homo sapiens, UniProt P53779); assay: Dose response biochemical screening assay for inhibitors of c-Jun N-Terminal Kinase 3 (JNK3). [Related pubchem assays: 746 ]
[21] = target: T6, Small ubiquitin-related modifier 1 (Homo sapiens, UniProt P63165); assay: SUMO1 protein interaction blockers, potency – biochemical, fluorescence polarization, uHTS hits, dose response (AID 624382); type: functional; conditions: read-out: IC50_Mean
[22] = target: T6, Small ubiquitin-related modifier 1; assay: SUMO1 protein-protein binding blockers, potency – biochemical, FRET, dose response (AID 624383); type: functional; conditions: read-out: IC50_Mean
[23] = target: RNA-editing ligase 1, mitochondrial (Trypanosoma brucei brucei, UniProt P86926); assay: inhibition of trypanosome RNA editing ligase – biochemical, fluorescence, Trypanosoma brucei, dose response (AID 1117295); type: functional
Chain of RNA-editing ligase 1, mitochondrial (P86926 whole entry): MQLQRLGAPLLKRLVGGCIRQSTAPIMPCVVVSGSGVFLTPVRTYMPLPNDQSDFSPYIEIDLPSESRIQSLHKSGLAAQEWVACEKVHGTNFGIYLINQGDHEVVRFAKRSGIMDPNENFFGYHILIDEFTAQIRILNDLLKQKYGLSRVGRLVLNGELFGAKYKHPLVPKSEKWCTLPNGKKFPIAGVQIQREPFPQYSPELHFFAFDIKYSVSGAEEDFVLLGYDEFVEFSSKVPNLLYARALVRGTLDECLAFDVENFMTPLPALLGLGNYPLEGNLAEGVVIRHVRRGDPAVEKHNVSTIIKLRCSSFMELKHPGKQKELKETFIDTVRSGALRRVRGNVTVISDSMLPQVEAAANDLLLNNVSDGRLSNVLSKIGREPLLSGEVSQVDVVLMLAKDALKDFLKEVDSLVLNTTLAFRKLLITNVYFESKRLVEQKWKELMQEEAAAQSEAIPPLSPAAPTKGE

T6 sequence (P63165 whole entry): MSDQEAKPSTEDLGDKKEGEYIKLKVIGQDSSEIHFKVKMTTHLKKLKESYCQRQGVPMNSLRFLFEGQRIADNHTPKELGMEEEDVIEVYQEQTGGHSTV
T2 sequence (Q92731 whole entry): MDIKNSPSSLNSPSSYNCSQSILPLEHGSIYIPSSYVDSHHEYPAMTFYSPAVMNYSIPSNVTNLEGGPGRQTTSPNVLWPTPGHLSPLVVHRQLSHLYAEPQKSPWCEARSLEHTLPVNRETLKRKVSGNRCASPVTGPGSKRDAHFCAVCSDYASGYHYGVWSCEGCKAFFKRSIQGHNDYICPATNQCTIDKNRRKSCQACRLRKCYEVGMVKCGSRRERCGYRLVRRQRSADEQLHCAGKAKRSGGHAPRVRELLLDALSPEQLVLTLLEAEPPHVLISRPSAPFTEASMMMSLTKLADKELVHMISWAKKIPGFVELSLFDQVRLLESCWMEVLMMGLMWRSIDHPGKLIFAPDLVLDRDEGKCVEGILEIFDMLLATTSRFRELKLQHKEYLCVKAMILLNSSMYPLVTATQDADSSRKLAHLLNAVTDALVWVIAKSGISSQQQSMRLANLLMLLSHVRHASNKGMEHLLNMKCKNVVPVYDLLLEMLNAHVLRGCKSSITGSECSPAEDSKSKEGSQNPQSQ
Chain of Ion channel NompC (Q7T1G6 whole entry): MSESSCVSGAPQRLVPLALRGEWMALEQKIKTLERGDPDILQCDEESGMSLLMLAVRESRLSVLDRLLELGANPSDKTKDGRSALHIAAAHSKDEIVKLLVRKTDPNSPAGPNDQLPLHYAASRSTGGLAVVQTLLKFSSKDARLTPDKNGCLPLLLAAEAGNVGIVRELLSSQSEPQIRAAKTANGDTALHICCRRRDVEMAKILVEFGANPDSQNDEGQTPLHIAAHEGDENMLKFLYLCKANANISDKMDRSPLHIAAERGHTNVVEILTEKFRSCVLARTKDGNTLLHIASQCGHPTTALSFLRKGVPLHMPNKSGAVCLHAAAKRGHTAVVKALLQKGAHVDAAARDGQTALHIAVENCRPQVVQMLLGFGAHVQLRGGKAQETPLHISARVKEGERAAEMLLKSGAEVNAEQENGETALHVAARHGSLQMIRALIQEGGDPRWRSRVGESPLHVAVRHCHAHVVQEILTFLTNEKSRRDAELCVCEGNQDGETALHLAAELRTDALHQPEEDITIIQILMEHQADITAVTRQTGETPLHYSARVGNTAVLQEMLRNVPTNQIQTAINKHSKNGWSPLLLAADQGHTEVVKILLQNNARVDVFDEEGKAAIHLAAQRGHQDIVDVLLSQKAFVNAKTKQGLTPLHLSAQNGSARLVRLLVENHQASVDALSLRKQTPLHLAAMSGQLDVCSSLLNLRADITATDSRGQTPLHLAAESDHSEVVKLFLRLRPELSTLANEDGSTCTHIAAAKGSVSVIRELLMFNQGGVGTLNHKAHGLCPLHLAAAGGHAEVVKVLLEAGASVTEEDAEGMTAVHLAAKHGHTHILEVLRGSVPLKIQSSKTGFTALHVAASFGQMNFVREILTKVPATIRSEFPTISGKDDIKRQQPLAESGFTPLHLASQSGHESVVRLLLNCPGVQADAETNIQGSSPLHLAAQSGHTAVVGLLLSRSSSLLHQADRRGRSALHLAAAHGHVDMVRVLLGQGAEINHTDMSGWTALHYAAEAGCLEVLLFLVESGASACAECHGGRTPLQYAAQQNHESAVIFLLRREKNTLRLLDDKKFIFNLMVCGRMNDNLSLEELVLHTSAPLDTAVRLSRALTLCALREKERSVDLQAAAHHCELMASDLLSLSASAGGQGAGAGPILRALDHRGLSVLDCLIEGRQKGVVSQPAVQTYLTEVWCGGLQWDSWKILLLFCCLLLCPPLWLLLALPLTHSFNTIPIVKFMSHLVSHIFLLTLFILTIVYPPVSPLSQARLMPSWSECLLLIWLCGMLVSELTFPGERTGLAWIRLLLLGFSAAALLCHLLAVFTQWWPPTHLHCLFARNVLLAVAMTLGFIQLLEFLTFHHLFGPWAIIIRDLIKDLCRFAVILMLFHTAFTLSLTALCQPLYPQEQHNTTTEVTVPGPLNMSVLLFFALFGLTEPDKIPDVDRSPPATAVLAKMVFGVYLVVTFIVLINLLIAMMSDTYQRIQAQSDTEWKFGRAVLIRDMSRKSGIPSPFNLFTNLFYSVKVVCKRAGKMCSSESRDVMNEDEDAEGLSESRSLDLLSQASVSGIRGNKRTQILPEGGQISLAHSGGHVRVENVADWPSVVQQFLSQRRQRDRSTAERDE
Chain of Ubiquitin carboxyl-terminal hydrolase BAP1 (Q92560 whole entry): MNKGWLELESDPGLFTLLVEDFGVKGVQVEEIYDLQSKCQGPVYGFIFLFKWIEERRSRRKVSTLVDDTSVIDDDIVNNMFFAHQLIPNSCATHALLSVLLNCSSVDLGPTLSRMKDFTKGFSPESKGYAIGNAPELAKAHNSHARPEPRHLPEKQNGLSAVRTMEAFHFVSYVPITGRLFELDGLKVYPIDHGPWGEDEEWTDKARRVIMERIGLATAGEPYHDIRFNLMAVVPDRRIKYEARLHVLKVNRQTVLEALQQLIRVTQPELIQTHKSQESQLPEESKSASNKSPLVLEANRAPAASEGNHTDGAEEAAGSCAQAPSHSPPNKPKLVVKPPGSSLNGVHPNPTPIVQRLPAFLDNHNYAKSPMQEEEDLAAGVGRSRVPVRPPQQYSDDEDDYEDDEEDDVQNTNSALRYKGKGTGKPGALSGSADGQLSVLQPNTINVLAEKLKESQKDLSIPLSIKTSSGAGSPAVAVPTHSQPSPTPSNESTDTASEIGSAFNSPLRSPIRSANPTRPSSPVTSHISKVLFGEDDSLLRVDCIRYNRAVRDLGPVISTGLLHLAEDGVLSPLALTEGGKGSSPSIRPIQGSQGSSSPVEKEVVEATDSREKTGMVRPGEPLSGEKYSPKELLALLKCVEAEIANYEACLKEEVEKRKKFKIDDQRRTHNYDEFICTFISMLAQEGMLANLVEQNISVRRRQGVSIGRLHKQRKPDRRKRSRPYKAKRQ
Chain of Mitogen-activated protein kinase 10 (P53779 whole entry): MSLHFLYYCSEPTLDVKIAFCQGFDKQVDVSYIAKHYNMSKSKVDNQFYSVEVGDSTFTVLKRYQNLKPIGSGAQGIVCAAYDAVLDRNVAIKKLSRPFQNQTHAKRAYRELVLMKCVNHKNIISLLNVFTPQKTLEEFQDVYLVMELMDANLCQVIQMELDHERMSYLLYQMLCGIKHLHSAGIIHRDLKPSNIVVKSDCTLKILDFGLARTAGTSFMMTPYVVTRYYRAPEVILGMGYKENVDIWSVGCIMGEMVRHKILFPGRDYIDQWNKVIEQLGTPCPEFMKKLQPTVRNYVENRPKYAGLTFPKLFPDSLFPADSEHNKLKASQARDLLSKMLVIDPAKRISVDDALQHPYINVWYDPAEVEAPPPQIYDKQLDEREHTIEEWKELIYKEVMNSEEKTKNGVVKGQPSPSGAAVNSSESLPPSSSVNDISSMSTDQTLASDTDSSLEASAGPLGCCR
Chain of Glyceraldehyde-3-phosphate dehydrogenase (P04406 whole entry): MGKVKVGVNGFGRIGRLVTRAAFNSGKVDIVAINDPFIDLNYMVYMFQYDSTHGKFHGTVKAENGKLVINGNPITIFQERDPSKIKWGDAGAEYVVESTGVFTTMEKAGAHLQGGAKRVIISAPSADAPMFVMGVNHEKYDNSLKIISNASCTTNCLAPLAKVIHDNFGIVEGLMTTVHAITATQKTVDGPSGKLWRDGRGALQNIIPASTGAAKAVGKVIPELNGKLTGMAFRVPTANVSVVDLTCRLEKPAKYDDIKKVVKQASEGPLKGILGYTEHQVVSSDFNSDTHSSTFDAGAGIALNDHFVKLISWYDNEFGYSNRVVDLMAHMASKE

O=C(Nc1cnn(C23CC4CC(CC(C4)C2)C3)c1)c1cnn2c(C(F)(F)F)cc(-c3ccco3)nc12
IC50 [1]: 11.2 µM (active)
IC50 [2]: > 50 µM (not active)
IC50 [3]: < 0.023 µM (not active)
IC50 [4]: > 100 µM (not active)
IC50 [5]: 3.64 µM (active)
IC50 [6]: 1.69 µM (active)
IC50 [7]: 1.76 µM (active) and 12.3 µM (active)

O=C1/C(=C/c2ccco2)SC(=S)N1CCC(=O)N1CCCCC1CCO (stereo unspecified)
CC50 [8]: 13.4 µM (active)

COCCn1c(C)cc(C(=O)Cn2nc(C(=O)O)c3ccccc3c2=O)c1C
IC50 [9]: 3.73 µM (active)

Cc1c(-c2cccc(Cl)c2)nc2ccccc2c1C(=O)OCC(=O)N(C)C1CCS(=O)(=O)C1 (stereo unspecified)
IC50 [10]: > 55.9 µM (not active)
IC50 [11]: 36.1 µM (not active)

Cc1cccc(-c2noc(CCCC(=O)N3CCOCC3)n2)c1
CC50 [12]: > 99 µM (not active)

CCOC(=O)c1c(NC(=O)CSc2nnc(CNc3ccc(F)cc3)o2)sc(C)c1C
IC50 [13]: 29.1 µM (active)

CC(=O)C1=C(C)NC(SCC(=O)c2ccc(Cl)c(Cl)c2)=C(C#N)C1c1ccco1 (stereo unspecified)
IC50 [13]: > 50 µM (not active)

O=C(CSc1nnc(-c2ccco2)o1)c1ccccc1Cl
IC50 [14]: > 100 µM (active)

Cc1ccc(S(=O)(=O)N(CC(=O)N2CCCCC2)c2cccc(C)c2)cc1
EC50 [15]: 1.24 µM (active)
EC50 [16]: > 29.9 µM (not active)

CCOC(=O)CC(=O)CSc1ncnc2c1oc1ccccc12
EC50 [17]: > 79.4 µM (not active)
EC50 [18]: > 26.5 µM (not active)
EC50 [19]: > 79.4 µM (inactive)
IC50 [20]: > 31 µM (not active)

CC1=CC(C)(C)N(C(=O)CSc2nnc(-c3ccccc3)o2)c2ccc(C)cc21
EC50 [15]: 4.18 µM (active)
EC50 [16]: > 29.9 µM (not active)

O=C(CSc1ncccc1-c1nc2ccccc2[nH]1)N1CCN(c2ccccc2F)CC1
IC50 [20]: 55.9 µM (not active)

O=C(O)c1cccc(NC(=S)NC(NC(=O)c2cccc([N+](=O)[O-])c2)C(Cl)(Cl)Cl)c1 (stereo unspecified)
IC50 [21]: > 66.6 µM (inactive)
IC50 [22]: 10.8 µM (active)
IC50 [9]: 9.85 µM (active)

COCCn1cnc2cc(C)c(C)cc21
IC50 [1]: > 100 µM (not active)
IC50 [7]: > 100 µM (not active)

COC(=O)C1=C(C)N(Cc2ccccc2C(F)(F)F)C(NCC2CC2)=NC1c1ccc(F)cc1 (stereo unspecified)
IC50 [23]: > 96.6 µM (inactive)

COC(=O)C1=C(C)N(Cc2ccccc2C(F)(F)F)C(NCc2ccc3c(c2)OCO3)=NC1c1ccc(C(F)(F)F)cc1 (stereo unspecified)
IC50 [23]: > 96.6 µM (inactive)
